The structures appear in SMILES notation. ≈ marks a conversion by molar mass, not a printed value.

Test [1] deals with HeLa-S suspended cervical carcinoma. Briefly: Cytotoxicity, HeLa-S3 growth. It is filed as cell-based, human. The source says: (§1) CYTOTOXlCITY OF POLY(PHENOLIC)SULFONATES AND THEIR SODIUM SALTS IN L1210 LYMPHOID LEUKEMIA CELLS Fei Wang, Amy E. Warren, Cheryl R. Barnes and Iris H. Hall* Division of Medicinal Chemistry and Natural Products University of North Carolina Chapel Hill, N.C. […] Because ofthese properties it was surmised that these poly(phenolic)sulfonated compounds may have antineoplastic activity. METHODS Source of Compounds Test compounds were supplied by GeneLabs, Inc. [Redwood City, CA [Table 1]. Radioisotopes were obtained from New England Nuclear [Dupont, Boston, MA]. Substrates and co-factors were purchased om Sigma Chemical Co., [St Louis, MO]. […] Cell numbers were determined by the trypan blue exclusion technique. Solid tumor cytotoxicity was determined by Leibovitz et al. 's method utilizing crystal violeeOH and read at 562 nm (Molecular Devices). Values for cytotoxicity were expressed as EDs0 g/ml, i.e. the concentration ofthe compound inhibiting 50% ofcell growth. […] Incorporation of 4C- formate (53.0 mCi/mmol) into pyrimidines was determined by the method of Christopherson et al.[13]. […] DNA polymerase Ot activity was determined in cytoplasmic extracts isolated by Eichler et aL's method. […] Messenger-, ribosomal- and transfer-RNA polymerase enzymes were isolated with different concentrations of ammonium sulfate; individual RNA polymerase activities were determined using 3H -UTP 16,17]. […]

Test [2] deals with L1210 protein synthesis. Briefly: Incorporation of labeled precursor into protein. It is filed as cell-based, mouse. To be noted: 60 min, N=6. The source says: (§2) CYTOTOXlCITY OF POLY(PHENOLIC)SULFONATES AND THEIR SODIUM SALTS IN L1210 LYMPHOID LEUKEMIA CELLS Fei Wang, Amy E. Warren, Cheryl R. Barnes and Iris H. Hall* Division of Medicinal Chemistry and Natural Products University of North Carolina Chapel Hill, N.C. […] Because ofthese properties it was surmised that these poly(phenolic)sulfonated compounds may have antineoplastic activity. METHODS Source of Compounds Test compounds were supplied by GeneLabs, Inc. [Redwood City, CA [Table 1]. Radioisotopes were obtained from New England Nuclear [Dupont, Boston, MA]. Substrates and co-factors were purchased om Sigma Chemical Co., [St Louis, MO]. Pentosan sulfate and other antineoplastic standards were obtained from Sigma Chemical Co. Tumor lines were obtained from American Type Culture Collection [Rockville, MD]. 147 Vol. 5, No. 3, 1998 Cytotoxicity ofSodium Poly(Phenolic)Sulfonates in L1210 Lymphoid Leukemia Cells Table 1 Structures of Poly(phenolic)sulfonate Compounds O2R" n Compound R' R" n MW # G1-2041 H OH 8 1489.46 G1-2029 H OH 6 1117.09 G1-2030 H OH 4 744.73 GI-2021 CH3 ONa 8 1777.5 G1-2057 CH3 ONa 4 888.75 GI-2158 CH3 ONa 6 1333.13 GI-2063 OCH3 ONa 8 2001.65 G1-2042 OAc ONa 8 2017.73 Cytotoxicity Poly(phenolic)sulfonates were tested for cytotoxic activity by homogenizing drug in 0.05% Tween 80/H20 to give a mg/ml stock concentration. These solutions were sterilized by passing them through an acrodisc ([…]). The following cell lines were maintained by literature techniques: murine L1210 lymphoid leukemia, P-388 lymphocytic leukemia, rat UMR 106 osteosarcoma, human Tmolt3 acute lymphoblastic T cell leukemia, HUT-8 lymphoma, HeLa-S suspended cervical carcinoma, HeLa solid cervical carcinoma, KB epidermoid nasopharynx, A431 epidermoid carcinoma, colorectal adenocarcinoma SW480, HCT-8 ileocecal adenocarcinoma, lung bronchogenic MB-9812, A549 lung carcinoma, and glioma HS683. Geran et al.'s protocol was used to assess the cytotoxicity of the compounds and standards in each cell line. Cell numbers were determined by the trypan blue exclusion technique. Solid tumor cytotoxicity was determined by Leibovitz et al. 's method utilizing crystal violeeOH and read at 562 nm (Molecular Devices). Values for cytotoxicity were expressed as EDs0 g/ml, i.e. the concentration ofthe compound inhibiting 50% ofcell growth. A value of less than 4 µg/ml was required for significant activity ofgrowth inhibition. Incorporation Studies Incorporation of labeled precursors into 3H-DNA, 3H -RNA and 3H -protein for 10 L1210 cells was obtained. The concentration response for inhibition of DNA, RNA and protein synthesis of the compounds at 25, 50 and 100 l.tM was determined for 60 min incubations. Incorporation of 14C -glycine (53.0 mCi/mmol) into purines was obtained by the method of Cadman et al.[12]. Incorporation of 4C- formate (53.0 mCi/mmol) into pyrimidines was determined by the method of Christopherson et al.[13]. Enzyme Assays Inhibition of various enzyme activities was performed by first preparing the appropriate L1210 cell homogenates or subcellular fractions, then adding the drug to be tested during the enzyme assay. For the concentration response studies, inhibition of enzyme activity was determined at 25, 50 and 100 l.tM of compounds G1-2021, G1-2029, GI-2041 and G1-2063 after 60 min incubations. DNA polymerase Ot activity was determined in cytoplasmic extracts isolated by Eichler et aL's method. The DNA polymerase assay was described by Sedwick et al.[15] using 3H-TTP. Messenger-, ribosomal- and transfer-RNA polymerase enzymes were isolated with different concentrations of ammonium sulfate; individual RNA polymerase activities were determined using 3H -UTP 16,17]. Ribonucleoside reductase activity was measured using 4C -CDP with dithioerythritol. The deoxyribonucleotides 4C -dCDP were separated from the ribonucleotides by TLC on PEI plates. […]

Test [3] concerns Thymidine kinase. Briefly: Thymidine kinase activity, L1210. It is filed as biochemical, mouse. Conditions: 60 min, N=6.
Excerpt: as §2

The test system of test [4] is L1210 DNA. Briefly: L1210 DNA strand scission, alkaline-sucrose gradient. Conditions: 100 μM, 24 hr. The test is classed as cell-based, mouse.
Excerpt: as §1

Test [5] has as its system HeLa solid cervical carcinoma. Briefly: Cytotoxicity, solid HeLa growth. The test is classed as cell-based, human.
Excerpt: as §1

Test [6] deals with colorectal adenocarcinoma SW480. Briefly: Cytotoxicity, SW480 growth. The test is classed as cell-based, human.
Excerpt: as §2, with “Geran et al.'s protocol was used to assess the cytotoxicity of the compounds and standards in each cell line.” left out, “A value of less than 4 µg/ml was required for significant activity ofgrowth inhibition. Incorporation Studies Incorporation of labeled precursors into 3H-DNA, 3H -RNA and 3H -protein for 10 L1210 cells was obtained. The concentration response for inhibition of DNA, RNA and protein synthesis of the compounds at 25, 50 and 100 l.tM was determined for 60 min incubations. Incorporation of 14C -glycine (53.0 mCi/mmol) into purines was obtained by the method of Cadman et al.[12].” left out, “Enzyme Assays Inhibition of various enzyme activities was performed by first preparing the appropriate L1210 cell homogenates or subcellular fractions, then adding the drug to be tested during the enzyme assay. For the concentration response studies, inhibition of enzyme activity was determined at 25, 50 and 100 l.tM of compounds G1-2021, G1-2029, GI-2041 and G1-2063 after 60 min incubations.” left out, “The DNA polymerase assay was described by Sedwick et al.[15] using 3H-TTP.” left out, “dithioerythritol.” for “dithioerythritol. The deoxyribonucleotides 4C -dCDP were separated from the ribonucleotides by TLC on PEI plates.”

For test [7], the system named is KB epidermoid nasopharynx. Briefly: Cytotoxicity, KB growth. The test is classed as cell-based, human.
Excerpt: as §1, with “MO]. Pentosan sulfate and other antineoplastic standards were obtained from Sigma Chemical Co. Tumor lines were obtained from American Type Culture Collection [Rockville, MD].” for “MO].”, “16,17]. Ribonucleoside reductase activity was measured using 4C -CDP with dithioerythritol.” for “16,17].”

[8] abbreviates: concentration inhibiting 50% of cell growth.

In the case of `O=S(=O)(O)c1cc2c(O)c(c1)Cc1cc(S(=O)(=O)O)cc(c1O)Cc1cc(S(=O)(=O)O)cc(c1O)Cc1cc(S(=O)(=O)O)cc(c1O)Cc1cc(S(=O)(=O)O)cc(c1O)Cc1cc(S(=O)(=O)O)cc(c1O)C2` [GI-2029], the “growth suppression, in words” value in test [1] is reported as “best activity”. The Protein synthesis in test [2] (50 μM) is 80+3% of Control; in test [2] (100 μM) it was 71+3% of Control. Also, the Thymidine kinase is reported as 105+6% of Control in test [3] (25 μM) and 104+6% of Control in test [3] (50 μM). Further, the “L1210 DNA fragmentation, in words” value in test [4] is “more moderated”.

As for `COc1c2cc(S(=O)(=O)[O-])cc1Cc1cc(S(=O)(=O)[O-])cc(c1OC)Cc1cc(S(=O)(=O)[O-])cc(c1OC)Cc1cc(S(=O)(=O)[O-])cc(c1OC)Cc1cc(S(=O)(=O)[O-])cc(c1OC)Cc1cc(S(=O)(=O)[O-])cc(c1OC)Cc1cc(S(=O)(=O)[O-])cc(c1OC)Cc1cc(S(=O)(=O)[O-])cc(c1OC)C2.[Na+].[Na+].[Na+].[Na+].[Na+].[Na+].[Na+].[Na+]` [GI-2021], the “activity, in words” value in test [5] is given as “effective”; in test [6], “active”. Further, the ED50 was 1.97 µg/mL in test [5] (setting [8]) and “less than 2 μg/ml” in test [6] (setting [8]). In addition, the results for the Protein synthesis in test [2] (25 μM), in test [2] (50 μM) and in test [2] (100 μM) were 80+4% of Control, 64+4% of Control and 59+3% of Control, respectively. For the same compound, the figures for the Thymidine kinase in test [3] (25 μM), in test [3] (50 μM) and in test [3] (100 μM) were 112+7% of Control, 96+5% of Control and 76+4% of Control, respectively. For the same compound, in test [4], the “L1210 DNA fragmentation, in words” value was “more evident”.

`O=S(=O)(O)c1cc2c(O)c(c1)Cc1cc(S(=O)(=O)O)cc(c1O)Cc1cc(S(=O)(=O)O)cc(c1O)Cc1cc(S(=O)(=O)O)cc(c1O)Cc1cc(S(=O)(=O)O)cc(c1O)Cc1cc(S(=O)(=O)O)cc(c1O)Cc1cc(S(=O)(=O)O)cc(c1O)Cc1cc(S(=O)(=O)O)cc(c1O)C2` [GI-2041]: in test [7], the “activity, in words” value is recorded as “active”. The ED50 in test [7] (setting [8]) turned out to be 2.60 µg/mL (≈ 1.75 µM). The Protein synthesis in test [2] (50 μM) and in test [2] (100 μM) was 70+3% of Control throughout. For the same compound, the figures for the Thymidine kinase in test [3] (25 μM) and in test [3] (50 μM) were 116+5% of Control and 104+5% of Control, respectively.

Values taken from paper PMC2365111, “Cytotoxicity of Poly(Phenolic)Sulfonates and Their Sodium Salts in L1210 Lymphoid Leukemia Cells” (Metal-Based Drugs, 1998).
